The subject of experiment [1] is acetylated histone H-4 in T24 human bladder cancer cells. Briefly: Histone H4 acetylation in whole cells by immunoblots. The class given is cell-based. Conditions: T-24, Table 5F, 16 h, read-out: H4 Ac (T24) EC50. The method in brief:
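T24 cells were treated with HDAC inhibitors for 16 h; […] total histone protein was resolved by SDS/PAGE and immunoblotted with polyclonal anti-acetylated H4 antibody. ECL detection, with signal quantified by densitometry.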
A general note: Immunoblotting shows a protein as a band on a membrane.

The next experiment has as its system HCT116 cells. Briefly: MTT assay. The class given is cell-based. Conditions: Homo sapiens, HCT-116, 72 h, Table 5F; HCT116 cells, 72 hours. The method in brief:
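Cells plated one day before dosing, then exposed to compound 72 h at 37 °C, 5% CO2. MTT at 0.5 mg/ml final for 4 h, solubilized in DMF/SDS buffer pH 4.7; OD converted to cell number from a standard growth curve.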

Experiment [2] has as its target T1, cloned recombinant human HDAC-1 (Homo sapiens, UniProt Q13547).
T1 construct: made in house; host or cells: Baculovirus insect cell expression system
Briefly: Human HDAC-1 enzyme inhibition, Assay 1 ([3H]-acetylated histone substrate, scintillation counting). Type of experiment: biochemical. The following applies: Table 5F; read-out: Human HDAC-1 IC50. In short, it runs like this:
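Recombinant human HDAC-1 from baculovirus-infected insect cells, preincubated with compound 30 min at 4° C. before reaction. Released [3H]-acetic acid extracted with ethyl acetate and counted by scintillation. IC50 taken from dose-response curves as concentration giving half-maximal inhibition.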

The EC50 is the concentration that produces a half-maximal response. Broadly, the IC50 is the concentration that inhibits the measured activity by half.

T1 sequence (Q13547 whole entry): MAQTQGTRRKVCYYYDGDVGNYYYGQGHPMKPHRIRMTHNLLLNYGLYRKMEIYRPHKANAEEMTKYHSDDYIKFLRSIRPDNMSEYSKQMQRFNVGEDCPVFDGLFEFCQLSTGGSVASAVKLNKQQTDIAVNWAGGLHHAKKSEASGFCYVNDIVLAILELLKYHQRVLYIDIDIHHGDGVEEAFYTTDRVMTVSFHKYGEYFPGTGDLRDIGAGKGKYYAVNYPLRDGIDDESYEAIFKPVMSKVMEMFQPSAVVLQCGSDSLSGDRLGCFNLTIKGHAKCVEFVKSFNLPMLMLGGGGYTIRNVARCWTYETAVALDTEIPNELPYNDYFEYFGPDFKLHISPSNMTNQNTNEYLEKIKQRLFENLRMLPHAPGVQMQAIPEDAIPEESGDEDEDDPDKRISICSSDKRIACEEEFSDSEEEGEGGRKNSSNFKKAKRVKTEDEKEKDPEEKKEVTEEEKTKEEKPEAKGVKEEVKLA

As for `Nc1ccccc1NC(=O)c1ccc(Cn2cnc3ccc(Br)cc3c2=O)cc1` [Cpd 346, N-(2-Amino-phenyl)-4-(6-bromo-4-oxo-4H-quinazolin-3-ylmethyl)-benzamide], in experiment [1], the EC50 was < 1 µM. For the same compound, the figures for the IC50 (in the experiment on HCT116 cells; in experiment [2]) were 0.5 µM and 3 µM, respectively.

As to `Nc1ccccc1NC(=O)c1ccc(Cn2nnc3ccc(Br)cc3c2=O)cc1` [Cpd 347, N-(2-Amino-phenyl)-4-(6-bromo-4-oxo-4H-benzo[d][1,2,3]triazin-3-ylmethyl)-benzamide], in experiment [1], the EC50 is 2 µM. Moreover, the IC50 is 0.6 µM in the experiment with HCT116 cells and 2 µM in experiment [2].

As for `Nc1ccccc1NC(=O)c1ccc(Cn2nnc3ccc(Cl)cc3c2=O)cc1` [Cpd 348, N-(2-Amino-phenyl)-4-(6-chloro-4-oxo-4H-benzo[d][1,2,3]triazin-3-ylmethyl)-benzamide], the EC50 in experiment [1] was 1 µM. Also, the IC50 with HCT116 cells amounted to 0.3 µM; in experiment [2], 2 µM.

For the compound `Nc1ccccc1NC(=O)c1ccc(CNc2cccc(F)n2)cc1` [Cpd 349], the concentration giving a half-maximal response (EC50) in experiment [1] was determined as 3 µM. In addition, the IC50 came to 1 µM with HCT116 cells and 13 µM in experiment [2].

Take `Nc1ccccc1NC(=O)c1ccc(CNc2nc(F)c(F)cc2F)cc1` [Cpd 350]: the EC50 in experiment [1] turned out to be 5 µM. In addition, the figures for the IC50 (in the experiment on HCT116 cells; in experiment [2]) were 1 µM and 2 µM, respectively.

`Nc1ccccc1NC(=O)c1ccc(Cc2noc(-c3cccnc3)n2)cc1` [Cpd 357, N-(2-Amino-phenyl)-4-(5-pyridin-3-yl-[1,2,4]oxadiazol-3-ylmethyl)-benzamide]: in experiment [1], the EC50 was 2 µM. The IC50 is 0.4 µM in the experiment on HCT116 cells and 4 µM in experiment [2].

As for `Nc1ccccc1NC(=O)c1ccc(Cc2noc(-c3ccncc3)n2)cc1` [Cpd 358, N-(2-Amino-phenyl)-4-(5-pyridin-4-yl-[1,2,4]oxadiazol-3-ylmethyl)-benzamide], the EC50 in experiment [1] was 2 µM. Also, the IC50 stood at 1 µM in the experiment on HCT116 cells and 3 µM in experiment [2].

As to `CC(=O)Nc1sc(Cc2ccc(C(=O)Nc3ccccc3N)cc2)cc1C#N` [Cpd 359, 4-(5-Acetylamino-4-cyano-thiophen-2-ylmethyl)-N-(2-amino-phenyl)-benzamide], the EC50 in experiment [1] is 1 µM. The IC50 in the experiment on HCT116 cells worked out at 0.3 µM; in experiment [2], 2 µM.

As to `Cc1c(Cc2ccc(C(=O)Nc3ccccc3N)cc2)sc(NC(=O)c2ccccc2)c1C#N` [Cpd 360, 4-(5-Benzoylamino-4-cyano-3-methyl-thiophen-2-ylmethyl)-N-(2-amino-phenyl)-benzamide], in experiment [1], the EC50 was determined as 1 µM. The IC50 in the experiment with HCT116 cells is 0.2 µM; in experiment [2], 5 µM.

For the compound `Cc1c(Cc2ccc(C(=O)Nc3ccccc3N)cc2)sc(NC(=O)Nc2ccccc2)c1C#N` [Cpd 361, N-(2-Amino-phenyl)-4-[4-cyano-3-methyl-5-(3-phenyl-ureido)-thiophen-2-ylmethyl]-benzamide], in experiment [1], the EC50 amounted to 1 µM. The 50% inhibitory concentration (IC50) in the experiment with HCT116 cells worked out at 0.5 µM; in experiment [2], 2 µM.

As for `Nc1ccccc1NC(=O)c1ccc(CN2C(=O)COc3ccccc32)cc1` [Cpd 362, N-(2-Amino-phenyl)-4-(3-oxo-2,3-dihydro-benzo[1,4]oxazin-4-ylmethyl)-benzamide], in experiment [1], the EC50 came out at 1 µM. For the same compound, the IC50 with HCT116 cells is 0.7 µM; in experiment [2], 2 µM.

For the compound `Nc1ccccc1NC(=O)c1ccc(CN2C(=O)CSc3ccccc32)cc1` [Cpd 363, N-(2-Amino-phenyl)-4-(3-oxo-2,3-dihydro-benzo[1,4]thiazin-4-ylmethyl)-benzamide], in experiment [1], the EC50 is 3 µM. The IC50 is 0.3 µM in the experiment on HCT116 cells and 1 µM in experiment [2].

`Nc1ccccc1NC(=O)c1ccc(CC2C(=O)c3ccccc3C2O)cc1` (stereo not drawn) [Cpd 365, N-(2-Amino-phenyl)-4-(1-hydroxy-3-oxo-indan-2-ylmethyl)-benzamide]: the EC50 in experiment [1] turned out to be 3 µM. Moreover, the IC50 with HCT116 cells worked out at 0.6 µM; in experiment [2], 3 µM.

As for `COc1ccc(C2C=CC(c3ccc(C(=O)Nc4ccccc4N)cc3)O2)cc1` (stereo not drawn) [Cpd 367, N-(2-Amino-phenyl)-4-[5-(4-methoxy-phenyl)-2,5-dihydro-furan-2-yl]-benzamide], the EC50 in experiment [1] worked out at 5 µM. Also, the IC50 stood at 2 µM with HCT116 cells and 6 µM in experiment [2].

Regarding `COc1ccc(NC(=O)N(Cc2ccc(C(=O)Nc3ccccc3N)cc2)c2ccc(OC)c(OC)c2)cc1OC` [Cpd 371, N-(2-Amino-phenyl)-4-[1,3-bis-(3,4-dimethoxy-phenyl)-ureidomethyl]-benzamide], the EC50 in experiment [1] is 2 µM. For the same compound, the IC50 in the experiment on HCT116 cells was 0.5 µM; in experiment [2], 4 µM.

Consider `COc1ccc(N(Cc2ccc(C(=O)Nc3ccccc3N)cc2)C(=O)Nc2ccc(Cl)cc2)cc1OC` [Cpd 372, N-(2-Amino-phenyl)-4-[3-(4-chloro-phenyl)-1-(3,4-dimethoxy-phenyl)-ureidomethyl]-benzamide], for which the EC50 in experiment [1] was found to be 1 µM. For the same compound, the IC50 in the experiment on HCT116 cells was found to be 0.2 µM; in experiment [2] it was 2 µM.

As for `COc1ccc(N(Cc2ccc(C(=O)Nc3ccccc3N)cc2)C(=O)Nc2ccccc2)cc1OC` [Cpd 373, N-(2-Amino-phenyl)-4-[1-(3,4-dimethoxy-phenyl)-3-phenyl-ureidomethyl]-benzamide], in experiment [1], the EC50 came to 1 µM. The IC50 was found to be 0.4 µM in the experiment with HCT116 cells and 4 µM in experiment [2].

Regarding `COc1ccc(N(Cc2ccc(C(=O)Nc3ccccc3N)cc2)C(=O)Nc2ccc(Oc3ccccc3)cc2)cc1OC` [Cpd 374, N-(2-Amino-phenyl)-4-[1-(3,4-dimethoxy-phenyl)-3-(4-phenoxy-phenyl)-ureidomethyl]-benzamide], in experiment [1], the EC50 came out at 1 µM. In addition, the IC50 worked out at 0.3 µM with HCT116 cells and 2.5 µM in experiment [2].

For the compound `Nc1ccccc1NC(=O)c1ccc(-c2ccc(C(=O)Nc3ccccc3N)cc2)cc1` [Cpd 375, Biphenyl-4,4′-dicarboxylic acid bis-[(2-amino-phenyl)-amide]], the EC50 in experiment [1] is 25 µM. For the same compound, the IC50 in the experiment with HCT116 cells was found to be 4 µM; in experiment [2], 3 µM.

Consider `Nc1ccccc1NC(=O)c1ccc(CNc2ncccn2)cc1` [Cpd 377], for which, in experiment [1], the EC50 came out at 3 µM. The IC50 in the experiment with HCT116 cells was determined as 2 µM; in experiment [2], 4 µM.

Turning to `Cc1cc(C)nc(SCc2ccc(C(=O)Nc3ccccc3N)cc2)n1` [Cpd 378, N-(2-Amino-phenyl)-4-(4,6-dimethyl-pyrimidin-2-ylsulfanylmethyl)-benzamide], the EC50 in experiment [1] was 2 µM. Moreover, the IC50 in the experiment with HCT116 cells was 0.7 µM; in experiment [2] it was 2 µM.

Consider `Nc1ccccc1NC(=O)c1ccc(CSc2nccc(C(F)(F)F)n2)cc1` [Cpd 379, N-(2-Amino-phenyl)-4-(4-trifluoromethyl-pyrimidin-2-ylsulfanylmethyl)-benzamide], for which the 50% effective concentration (EC50) in experiment [1] worked out at 15 µM. Besides, the figures for the IC50 (in the experiment with HCT116 cells; in experiment [2]) were 0.6 µM and 2 µM, respectively.

Take `Nc1ccccc1NC(=O)c1ccc(CSc2ccccn2)cc1` [Cpd 381]: the EC50 in experiment [1] came out at 2 µM. Further, the values for the IC50 (in the experiment with HCT116 cells; in experiment [2]) were 1 µM and 2 µM, respectively.

Regarding `Cc1cc(C)nc(NCc2ccc(C(=O)Nc3ccccc3N)cc2)n1` [Cpd 382, N-(2-Amino-phenyl)-4-[(4,6-dimethyl-pyrimidin-2-ylamino)-methyl]-benzamide], the EC50 in experiment [1] was found to be 3 µM. Besides, the IC50 in the experiment with HCT116 cells is 1 µM; in experiment [2], 3 µM.

In the case of `Cc1cc(C)nc(NCc2ccc(C(=O)Nc3ccccc3N)cc2)c1` [Cpd 383, N-(2-Amino-phenyl)-4-[(4,6-dimethyl-pyridin-2-ylamino)-methyl]-benzamide], the EC50 in experiment [1] was determined as 2 µM. Besides, the IC50 came to 0.5 µM in the experiment with HCT116 cells and 2 µM in experiment [2].

In the case of `Cc1cc(C)nc(OCc2ccc(C(=O)Nc3ccccc3N)cc2)n1` [Cpd 384, N-(2-Amino-phenyl)-4-(4,6-dimethyl-pyrimidin-2-yloxymethyl)-benzamide], the EC50 in experiment [1] worked out at 5 µM. In addition, the IC50 in the experiment with HCT116 cells was 2 µM; in experiment [2] it was 3 µM.

Regarding `COc1cc(NCc2ccc(C(=O)Nc3ccccc3N)cc2)ncn1` [Cpd 385], in experiment [1], the EC50 came to 2 µM. The IC50 in the experiment on HCT116 cells worked out at 1 µM; in experiment [2] it was 3 µM.

Consider `CC(=O)c1cc2c(cc1NCc1ccc(C(=O)Nc3ccccc3N)cc1)OCO2` [Cpd 386, 4-[(6-Acetyl-benzo[1,3]dioxol-5-ylamino)-methyl]-N-(2-amino-phenyl)-benzamide], for which, in experiment [1], the EC50 worked out at 1 µM. In addition, the IC50 with HCT116 cells turned out to be 1 µM; in experiment [2], 3 µM.

Consider `COc1cc(Cl)cc(NCc2ccc(C(=O)Nc3ccccc3N)cc2)n1` [Cpd 387], for which the 50% effective concentration (EC50) in experiment [1] came out at 1 µM. For the same compound, the IC50 stood at 1 µM in the experiment with HCT116 cells and 2 µM in experiment [2].

As for `COc1ccc(NCc2ccc(C(=O)Nc3ccccc3N)cc2)c(OC)n1` [Cpd 388, N-(2-Amino-phenyl)-4-[(2,6-dimethoxy-pyridin-3-ylamino)-methyl]-benzamide], the EC50 in experiment [1] was found to be 5 µM. The IC50 in the experiment with HCT116 cells was 0.4 µM; in experiment [2], 3 µM.

As to `Nc1ccccc1NC(=O)c1ccc(CNc2nc3ccccc3[nH]2)cc1` [Cpd 389], in experiment [1], the EC50 worked out at 1 µM. Also, the IC50 with HCT116 cells stood at 0.2 µM; in experiment [2] it was 3 µM.

In the case of `COc1cccc(NCc2ccc(C(=O)Nc3ccccc3N)cc2)n1` [Cpd 390, N-(2-Amino-phenyl)-4-[(6-methoxy-pyridin-2-ylamino)-methyl]-benzamide], the EC50 in experiment [1] was 5 µM. Further, the IC50 was 0.8 µM in the experiment on HCT116 cells and 2 µM in experiment [2].

The values are drawn from patent US7868204B2, “Inhibitors of histone deacetylase” (MethylGene Inc., priority 2001, dated 2011).
